{
  "source": "patent US20250360114A1",
  "about": "“INTRAVENOUS RIFABUTIN FORMULATION AND METHODS OF MAKING” (BIOVERSYS AG, priority 2024, published 2025)",
  "key": {"[1]": {"assay": "Solubility of rifabutin in alkanes", "format": "physicochemical"}, "[2]": {"assay": "Sub-visible particle test (10 mg/mL in 0.9% saline, particle counter)", "format": "physicochemical", "method": "As these particle forming impurities are not described in the current pharmacopeial analytical methods, a new testing method was developed which is described in the methods below. In brief, rifabutin powder is dissolved in a mixture of dimethyl isosorbide, acetic acid and water. Subsequently, the obtained solution is diluted in 0.9% saline to a final concentration of 10 mg/mL and sub-visible particles are determined. The established limits for this test are: (1) not more than 12.5 particles/mL greater than 10 μm in diameter, and (2) not more than 3 particles/mL greater than 25 μm in diameter. Considering that current concentrations used for the intravenous administration of rifabutin are well below 10 mg/mL, these limits are much more stringent than the current pharmacopeial limits.\nAbout 400 mg of rifabutin is dissolved in 2 mL of a mixture of isosorbide dimethyl ether (DMI) and acetic acid in water (40% DMI, 2.4% acetic acid). The obtained solution is filtered through a 0.2 μm Nylon filter and […] of 0.9% saline solution to a final concentration of 10 mg/mL. Solutions are stirred for 15 min on a roller mixer to allow sub-visible particle formation.\nSub-visible particles are determined using a suitable instrument (e.g. PAMAS SVSS particle counter). Particle numbers in the 10 mg/mL solution should be not more than 12.5 particles/mL greater 10 μm and not more than […] greater 25 μm to pass the test."}, "[3]": {"conditions": "Method 1, Example 1 (pentane Soxhlet extraction)"}, "[4]": {"conditions": "Method 2, Example 2 (pentane / silica gel columns, acetone elution)"}, "[5]": {"conditions": "Method 3, Example 3 (dissolved in n-heptane 50° C., filtered)"}},
  "data": [
    {"smiles": "CO[C@H]1/C=C/O[C@@]2(C)Oc3c(C)c(O)c4c(c3C2=O)C2=NC3(CCN(CC(C)C)CC3)NC2=C(NC(=O)/C(C)=C\\C=C\\[C@H](C)[C@H](O)[C@@H](C)[C@@H](O)[C@@H](C)[C@H](OC(C)=O)[C@@H]1C)C4=O", "note": "[Rifabutin]", "values": [
      {"measurement": "Solubility", "setting": "[1]", "value": "low solubility"}
    ]},
    {"smiles": "CO[C@H]1/C=C/O[C@@]2(C)Oc3c(C)c(O)c4c(c3C2=O)C2=NC3(CCN(CC(C)C)CC3)NC2=C(NC(=O)/C(C)=C\\C=C\\[C@H](C)[C@H](O)[C@@H](C)[C@@H](O)[C@@H](C)[C@H](OC(C)=O)[C@@H]1C)C4=O", "note": "[original, rifabutin]", "values": [
      {"measurement": "Sub-visible particles ≥10 μm", "setting": "[2]; [3]", "value": 138.3, "unit": "particles/mL"},
      {"measurement": "Sub-visible particles ≥25 μm", "setting": "[2]; [3]", "value": 16.3, "unit": "particles/mL"},
      {"measurement": "Sub-visible particles ≥10 μm", "setting": "[2]; [4]", "value": 1804.0, "unit": "particles/mL"},
      {"measurement": "Sub-visible particles ≥25 μm", "setting": "[2]; [4]", "value": 98.7, "unit": "particles/mL"},
      {"measurement": "Sub-visible particles ≥10 μm", "setting": "[2]; [5]", "value": 1804.0, "unit": "particles/mL"},
      {"measurement": "Sub-visible particles ≥25 μm", "setting": "[2]; [5]", "value": 98.7, "unit": "particles/mL"}
    ]},
    {"smiles": "CO[C@H]1/C=C/O[C@@]2(C)Oc3c(C)c(O)c4c(c3C2=O)C2=NC3(CCN(CC(C)C)CC3)NC2=C(NC(=O)/C(C)=C\\C=C\\[C@H](C)[C@H](O)[C@@H](C)[C@@H](O)[C@@H](C)[C@H](OC(C)=O)[C@@H]1C)C4=O", "note": "[purified, rifabutin]", "values": [
      {"measurement": "Sub-visible particles ≥10 μm", "setting": "[2]; [3]", "value": 8.4, "unit": "particles/mL"},
      {"measurement": "Sub-visible particles ≥25 μm", "setting": "[2]; [3]", "value": 0.4, "unit": "particles/mL"},
      {"measurement": "Sub-visible particles ≥10 μm", "setting": "[2]; [4]", "value": 2.6, "unit": "particles/mL"},
      {"measurement": "Sub-visible particles ≥25 μm", "setting": "[2]; [4]", "value": 0.0, "unit": "particles/mL"},
      {"measurement": "Sub-visible particles ≥10 μm", "setting": "[2]; [5]", "value": 7.1, "unit": "particles/mL"},
      {"measurement": "Sub-visible particles ≥25 μm", "setting": "[2]; [5]", "value": 0.2, "unit": "particles/mL"}
    ]}
  ]
}
